Read-outs that look alike come from different tables or passages of the source.
Legend:
heart rate [1] = assay: Heart rate of the un-anesthetised dog, oral; assay type: in vivo, Beagle dog
[2] = Acute toxicity in the mouse, intravenous; settings: in vivo
Text: These two compounds were the subject of an acute toxicity study in the mouse.
The two compounds had similar toxicity and the pharmacological study was able, indifferently, to be carried out with one or the other, the results being, in the two cases, expressed by weight of base per kg of body weight for the in vivo tests and in molar concentration for the in vitro tests.

heart rate [3] = assay: β-stimulant specificity: heart rate of the anesthetised dog, antagonism of compound A tachycardia by acebutolol; assay type: in vivo
Text: The results below are the averages of the values obtained in 3 dogs.

uterine horn = assay: Uterus relaxing activity in vivo (ocytocine-induced contractions); settings: rat, i.v.; compound A 16.8 μg/kg vs salbutamol 24.9 μg/kg
Description: The test was carried out also in the rat.
The aminal was anesthesied by ethyl carbamate.
The contractions caused in an exposed uterine horn immersed in a nutrient bath were recorded (bath: RINGER-LOCKE modified by GADDUM and VOGT). These contractions were induced by the intravenous injection of ocytocine, at the dose of 0.1 IU per kg.
After a control recording of the effects of the latter, the compound A or the Salbutamol were administered intravenously and the further ocytocine injection was carried out; its effect was compared with that of the control reaction.

[4] = T0 + 1 min, perfusion compound A 4.2 μg/kg/min, T0: 157
[5] = T1 + 4 h 1 min, second perfusion compound A after acebutolol
[6] = T1 + 4 h 2 min, second perfusion compound A after acebutolol
[7] = T1 + 4 h 4 min, second perfusion compound A after acebutolol
[8] = T1 + 4 h 6 min, second perfusion compound A after acebutolol

CC(C)(C)NCC(O)c1ccc(O)c(CO)c1 (stereo not drawn) [Salbutamol, reference compound]
Heart rate, average (heart rate [1]; 25 μg base/kg, 15 min, time 0: 92, 12 dogs): 142
Heart rate, average (heart rate [1]; 25 μg base/kg, 30 min, time 0: 92): 165
Heart rate, average (heart rate [1]; 25 μg base/kg, 1 h, time 0: 92): 170
Heart rate, average (heart rate [1]; 25 μg base/kg, 2 h, time 0: 92): 156
Heart rate, average (heart rate [1]; 25 μg base/kg, 3 h, time 0: 92): 137
Heart rate, average (heart rate [1]; 25 μg base/kg, 4 h, time 0: 92): 130
Heart rate, average (heart rate [1]; 25 μg base/kg, 5 h, time 0: 92): 120
Heart rate, average (heart rate [1]; 83 μg base/kg, 15 min, time 0: 90, 12 dogs): 163
Heart rate, average (heart rate [1]; 83 μg base/kg, 30 min, time 0: 90): 194
Heart rate, average (heart rate [1]; 83 μg base/kg, 1 h, time 0: 90): 197
Heart rate, average (heart rate [1]; 83 μg base/kg, 2 h, time 0: 90): 195
Heart rate, average (heart rate [1]; 83 μg base/kg, 3 h, time 0: 90): 172
Heart rate, average (heart rate [1]; 83 μg base/kg, 4 h, time 0: 90): 150
Heart rate, average (heart rate [1]; 83 μg base/kg, 5 h, time 0: 90): 148
Heart rate, average (heart rate [1]; 83 μg base/kg, 6 h, time 0: 90): 141
Heart rate, average (heart rate [1]; 83 μg base/kg, 7 h, time 0: 90): 138
Tachycardiac activity (comparison with Salbutamol) (heart rate [1]; un-anesthetised dog, in words): more active than compound B: the effect of the low dose of Salbutamol is equal to that of the high dose of compound B

COc1cc(C(O)CNC(C)CCn2cnc3ccccc32)ccc1O (stereo not drawn) [Compound A, 1-[1-benzimidazolyl]-N-[2-(4-hydroxy-3-methoxy-phenyl)2-hydroxy-ethyl]3-amino butane basic sulphate, dihydrate]
LD50 ([2]; as base, confidence limits printed, read-out: LD50 expressed as base): 96 mg/kg
LD50 ([2]; by weight of product, confidence limits p=0.05 printed, read-out: LD50): 114 mg/kg
Heart rate (heart rate [3]; [4]): 180 beats/min
Heart rate variation (heart rate [3]; [4]): +23
Heart rate variation (heart rate [3]; T0 + 2 min, perfusion compound A): +40
Heart rate (heart rate [3]; T0 + 2 min, perfusion compound A, T0: 157): 197 beats/min
Heart rate variation (heart rate [3]; T0 + 4 min, perfusion compound A): +45
Heart rate (heart rate [3]; T0 + 4 min, perfusion compound A, T0: 157): 202 beats/min
Heart rate variation (heart rate [3]; T0 + 6 min = T1, perfusion compound A): +48
Heart rate (heart rate [3]; T0 + 6 min = T1, perfusion compound A, T0: 157): 205 beats/min
Heart rate (heart rate [3]; [5]): 146 beats/min
Heart rate variation (heart rate [3]; [5]): -11
Heart rate (heart rate [3]; [6]): 155 beats/min
Heart rate variation (heart rate [3]; [6]): -2
Heart rate (heart rate [3]; [7]): 160 beats/min
Heart rate variation (heart rate [3]; [7]): +3
Heart rate (heart rate [3]; [8]): 160 beats/min
Heart rate variation (heart rate [3]; [8]): +3
Inhibiting activity on ocytocine-induced uterine contractions (comparison with Salbutamol) (uterine horn): inhibiting activity comparable with that of salbutamol

Reference: patent publication US4513001A, “β-Adrenergic 1-[1-benzimidazolyl]-N-[2-(4-hydroxy-3-methoxy-phenyl)-2-hydroxy-ethyl]- 3-amino butane and salts and hydrates thereof” (priority 1982, dated 1985)
